From EP1175467B1, “STABILIZED ADHESIVE COMPOSITIONS CONTAINING HIGHLY SOLUBLE, RED-SHIFTED, PHOTOSTABLE BENZOTRIAZOLE UV ABSORBERS AND LAMINATED ARTICLES DERIVED THEREFROM” (Ciba Specialty Chemicals Holding Inc., priority 1999, dated 2000)

Experiment: Benzotriazole solubility in adhesive GELVA 263 (observed crystallization after solvent evaporation)
Conditions: in GELVA 263 polyacrylate adhesive; approximate maximum concentration, weight of total benzotriazole added to GELVA 263 as is
Description: To measure this solubility a number of structurally different benzotriazoles are added to a typical adhesive GELVA® 263 (Solutia) which is a 44.5% solution of a polyacrylate in a mixture of ethyl acetate and hexane. The polyacrylate is a copolymer of methyl methacrylate, 2-ethylhexyl methacrylate and glycidyl methacrylate.
The test benzotriazole is dissolved in 5 mL of ethyl acetate, toluene or a mixture of ethyl acetate and toluene. To the solution is added 5 g of GELVA® 263 and 2-3 mL of the resulting solution is placed into individual watch glasses. Solubility is then evaluated based upon observed crystallization once the solvent has evaporated. Observations start after several hours and then continue over a period of several weeks.
Solubilities are reported in weight of total benzotriazole added to GELVA® 263 as is.
Following the procedure of Example 3, the solubility in GELVA® 263 (Solutia) of various mixtures of benzotriazoles is determined. […]
The test compound is dissolved in 5 mL of ethyl acetate, toluene or a mixture of ethyl acetate and toluene. […] Solubility is then evaluated based upon observed crystallization once the solvent has evaporated. […]

Compound | Solubility without Crystallization (%)
COC(=O)C[S+]([O-])c1ccc2nn(-c3cc(C(C)(C)C)cc(C(C)(C)C)c3O)nc2c1 (centres unmarked) [J, 5-methoxycarbonylmethylsulfinyl-2-(2-hydroxy-3,5-di-tert-butylphenyl)-2H-benzotriazole] | 8.0
COC(=O)CCc1cc(-n2nc3ccc(S(=O)(=O)c4ccccc4)cc3n2)c(O)c(C(C)(C)C)c1 [K, methyl 3-(5-phenylsulfonyl-2H-benzotriazol-2-yl)-5-tert-butyl-4-hydroxyhydrocinnamate] | 11.3
